Assay in all cases: growth of human tumour cells (NCI), 48 h
The subject of assay [1] is OVCAR-8 ovarian.
In assay [2] the test system is NCI-H460 lung.
In assay [3] the test system is UACC-257 melanoma.
The test system of assay [4] is HL-60(TB) leukemia.
Assay [5] has as its system UO-31 renal.
The subject of assay [6] is MOLT-4 leukemia.
Assay [7] concerns SNB-75 CNS.
Assay [8] relates to EKVX NSCLC.
The subject of assay [9] is 786-0 renal.
The test system of assay [10] is HT29 colon.
The test system of assay [11] is LOX IMVI melanoma.
Assay [12] has as its system TK-10 renal.
The test system of assay [13] is A549 NSCLC.
The subject of assay [14] is OVCAR-3 ovarian.
For assay [15], the system named is SK-OV-3 ovarian.
For assay [16], the system named is MCF7 breast.
Assay [17] deals with MDA-MB-435.

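96-well plates; 48 h exposure; 5 concentrations. Endpoints by linear interpolation between flanking doses. Not reached: highest tested concentration assigned. The concentration for full growth arrest is given as TGI.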 Some results are limits rather than exact numbers.

On to `COc1cccc2nc3cc(C)c(C)cc3nc12`, for which the TGI in [1], in assay [2], in assay [3], in assay [4], in [5] and in assay [6] was over 100 µM each time. In addition, the TGI in assay [7], in assay [8], in [9], in assay [10], in assay [11] and in [12] was over 100 µM throughout. Further, the TGI in assay [13], in [14] and in [15] was over 100 µM throughout.
Take `CC(C)C12C=CC(C)(CC1)n1c(=O)c3cc4ccccc4cc3c(=O)n12` (stereo unspecified): the TGI was over 100 µM in assay [1]; over 100 µM in assay [2]; over 100 µM in [3]; over 100 µM in assay [4]; 96.6 µM in assay [5]; over 100 µM in assay [6]. The TGI in assay [7] is over 100 µM; in [8], over 100 µM; in assay [9], over 100 µM; in assay [10] it was over 100 µM; in [11] it was over 100 µM; in assay [12] it was 94 µM. Besides, the TGI in assay [13], in [14] and in assay [15] was over 100 µM throughout.
As for `CS/C(C)=N/OC(=O)NCCCCNc1ccc(N=[N+]=[N-])cc1`, the TGI in assay [1] was over 100 µM; in assay [2], over 100 µM; in assay [3], over 100 µM; in assay [5], 82.4 µM; in assay [6], over 100 µM; in [7], over 100 µM. Besides, the TGI in [8], in assay [9], in [10], in [11], in [12] and in [13] was over 100 µM throughout. Besides, the TGI in assay [14] is 62.9 µM; in assay [15], over 100 µM.
On to `CCN(CC)CC(C(=O)Nc1c(C)cccc1C)/C(C)=N\NC(=O)c1ccncc1` (stereo unspecified), for which the TGI in assay [1], in assay [2], in assay [3], in assay [5], in assay [6] and in assay [7] was over 100 µM in each case. For the same compound, the TGI in assay [9], in assay [10], in assay [11], in [12], in [13] and in [14] was over 100 µM throughout. The same compound registered a TGI in [15] of over 100 µM.
Consider `c1ccc(C2OCCO2)c(OCCOc2cc(OCCOc3ccccc3C3OCCO3)c(OCCOc3ccccc3C3OCCO3)cc2OCCOc2ccccc2C2OCCO2)c1`, for which the TGI in assay [1] is over 100 µM; in assay [2], over 100 µM; in assay [3], over 100 µM; in assay [4], over 100 µM; in [5], 53.2 µM; in assay [6] it was over 100 µM. Moreover, the TGI in assay [7] was 7.06 µM; in assay [9] it was 17.3 µM; in assay [10], over 100 µM; in [11], over 100 µM; in assay [12] it was 31.4 µM; in assay [13], over 100 µM. The values for the TGI in assay [14] and in assay [15] were 46.8 µM and 13.7 µM, respectively.
In the case of `CCC(=O)N(O)C(C)(C)C`, the TGI in [1], in [2], in assay [3], in assay [4], in [5] and in [6] was over 100 µM each time. The TGI in assay [7], in [9], in [10], in assay [11], in assay [12] and in [13] was over 100 µM in each case. The TGI in assay [14] and in assay [15] was over 100 µM throughout.
As to `NC(CCCCNC(=O)CNC(=O)OCc1ccccc1)C(=O)NC(CCCCNC(=O)CNC(=O)OCc1ccccc1)C(=O)NC(CCCCNC(=O)CNC(=O)OCc1ccccc1)C(=O)NC(CCCCNC(=O)CNC(=O)OCc1ccccc1)C(=O)NC(CCCCNC(=O)CNC(=O)OCc1ccccc1)C(=O)NC(CCCCNC(=O)CNC(=O)OCc1ccccc1)C(=O)O` (stereo unspecified), the TGI in assay [1], in [2], in assay [16], in assay [3], in assay [4] and in assay [5] was over 75 µM each time. Moreover, the TGI in assay [17], in [6], in assay [7], in [9], in assay [10] and in assay [11] was over 75 µM each time. Besides, the TGI in assay [12], in [13] and in assay [14] was over 75 µM in each case.
On to `C=C=C(Sc1ccccc1)C(C)(C)OC(C)=O`, for which the TGI in [1] is 46.9 µM; in assay [2], 46.8 µM; in assay [3] it was 32.4 µM; in [4] it was 81 µM; in assay [5], 28.6 µM; in assay [6] it was over 100 µM. For the same compound, the TGI in [7] was 49.8 µM; in assay [9], 30.1 µM; in assay [10], 37 µM; in [11], 30.9 µM; in assay [12], over 100 µM; in [13] it was 74.8 µM. Also, the TGI in assay [14] amounted to 31.1 µM; in assay [15] it was 51.9 µM.
Consider `O=c1oc(-c2ccccc2)c(-c2ccccc2)n1-c1ccc(Br)cc1`, for which the TGI in assay [1], in assay [2], in [16], in [3], in assay [4] and in [5] was over 100 µM each time. The TGI in assay [17] is over 100 µM; in [6], over 100 µM; in assay [7] it was 32.2 µM; in assay [8], over 100 µM; in assay [9] it was over 100 µM; in [10], over 100 µM. The TGI in assay [11], in assay [12], in [13], in assay [14] and in assay [15] was over 100 µM each time.

Source of the values: PubChem BioAssay (NCI).
